# Measurements taken from patent US5171837A, “Peptide capable of binding interleukin 6 and an adsorbent comprising the peptide immobilized on a carrier” (Kuraray Co., Ltd., priority 1989, dated 1992).
# Non-standard residues stand in square brackets, D forms with d. Residues, ends and D or L forms follow the SMILES beside them. No end group written: not given here. *: point of attachment. X1 = NCCCCCCCCCCCCCCCCCC(=O)*; 12Ado = NCCCCCCCCCCCC(=O)O
# Target: T1, IL-6 (Homo sapiens, UniProt P05231)
# T1 construct: purchased Genzyme Corp
# Experiment: Activity for inhibition of binding of IL-6 to receptor by peptide (IL-6 receptor expression cells, FITC labeled anti-IL-6 antibody)
# Settings: 5 μg of the peptide, 50 ng of IL-6, 10^5 IL-6 receptor expression cells, 4° C for one hour
# Description: A human lymphocyte fraction was obtained from human peripheral blood with Ficoll-Paque (manufactured by Pharmacia-LKB). The fraction was reacted with a cultured supernatant of Epstein-Barr Virus producing cell strain B958 to transform the human lymphocytes to obtain IL-6 receptor expression cells.
# 1 mg of anti-human IL-6 antibody [Rabbit Anti-human Interleukin-6, manufactured by Genzyme Corp.] was dissolved in a 0.05M carbonate buffer solution (pH: 9.5) and to the resulting solution was added 10 μg of FITC [Fluorescein isothiocyanate, manufactured by Sigma Corp.]. The mixture was stirred at 4° C. overnight. The resulting solution was passed through PD-10 column (manufactured by Pharmacia-LKB) to obtain FITC labeled anti-IL-6 antibody as a firstly eluted fraction.
# 10^5 IL-6 receptor expression cells were suspended in 0.5 % BSA (bovine serum albumin, manufactured by Sigma Corp.)-PBS (a phosphate buffer solution containing 0.15 M sodium chloride, pH 7.4) and to the resulting suspension were added 50 ng of IL-6 (Human recombinant interleukin-6, manufactured by Genzyme Corp.) and 5 μg of the peptide obtained in any one of Examples 1 to 96. The suspension was allowed to stand at 4° C for one hour. Then, after washing the cells centrifugally with 0.5% BSA-PBS three times (1200 rpm, 5 min.), 1 μg of FITC labeled anti-IL-6 antibody was added and the mixture was allowed to stand at 4° C. for 30 minutes. After washing with 0.5% BSA-PBS three times, the intensity of fluorescence of the cells was determined. The binding inhibition activity of the peptide of each Example was evaluated, by taking the value obtained without addition of the peptide as a control and taking the value- obtained without addition of IL-6 as a blank, according to the following formula: [formula]
# T1 sequence (P05231 30-212): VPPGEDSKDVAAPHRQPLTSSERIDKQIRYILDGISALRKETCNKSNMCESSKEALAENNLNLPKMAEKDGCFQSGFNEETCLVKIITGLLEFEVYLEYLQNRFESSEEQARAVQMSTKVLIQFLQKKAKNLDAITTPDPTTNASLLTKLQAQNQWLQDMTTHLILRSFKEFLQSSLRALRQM
row,Binding inhibition activity (%),Molecule
1,60%,KDPHSWNSSFYRLRFELRYRAERSKD-NH2 [Example 78]
2,45%,HSWNSSFYRLRFELRYRAERSK [Example 61]
3,62%,CC(C)C[C@H](NC(=O)[C@H](CCC(=O)O)NC(=O)[C@H](Cc1ccccc1)NC(=O)[C@H](CCCNC(=N)N)NC(=O)[C@H](CC(C)C)NC(=O)[C@H](CCCNC(=N)N)NC(=O)[C@H](Cc1ccc(O)cc1)NC(=O)[C@H](Cc1ccccc1)NC(=O)[C@H](CO)NC(=O)[C@H](CO)NC(=O)[C@H](CC(N)=O)NC(=O)[C@H](Cc1c[nH]c2ccccc12)NC(=O)CCCCCCCCCCCCCCCCCN)C(=O)N[C@@H](CCCNC(=N)N)C(=O)N[C@@H](Cc1ccc(O)cc1)C(=O)N[C@@H](CCCNC(=N)N)C(=O)N[C@@H](C)C(=O)N[C@@H](CCC(=O)O)C(=O)N[C@@H](CCCNC(=N)N)C(=O)N[C@@H](CO)C(=O)N[C@@H](CCCCN)C(=O)NCC(=O)O [Example 36] (X1-WNSSFYRLRFELRYRAERSKG-OH)
4,37%,DDDDDWNSSFYRLRFELRYRAERSKAAG-NH2 [Example 40]
5,58%,DPHSWNSSFYRLRFELRYRAERSK [Example 77]
6,60%,CC(C)C[C@H](NC(=O)[C@H](CCC(=O)O)NC(=O)[C@H](Cc1ccccc1)NC(=O)[C@H](CCCNC(=N)N)NC(=O)[C@H](CC(C)C)NC(=O)[C@H](CCCNC(=N)N)NC(=O)[C@H](Cc1ccc(O)cc1)NC(=O)[C@H](Cc1ccccc1)NC(=O)[C@H](CO)NC(=O)[C@H](CO)NC(=O)[C@H](CC(N)=O)NC(=O)[C@H](Cc1c[nH]c2ccccc12)NC(=O)CCCCCCCCCCCN)C(=O)N[C@@H](CCCNC(=N)N)C(=O)N[C@@H](Cc1ccc(O)cc1)C(=O)N[C@@H](CCCNC(=N)N)C(=O)N[C@@H](C)C(=O)N[C@@H](CCC(=O)O)C(=O)N[C@@H](CCCNC(=N)N)C(=O)N[C@@H](CO)C(=O)N[C@@H](CCCCN)C(=O)N[C@@H](CCC(=O)O)C(=O)N[C@@H](CCC(=O)O)C(=O)N[C@@H](CCC(=O)O)C(=O)N[C@@H](CCC(=O)O)C(=O)N[C@@H](CCC(=O)O)C(=O)O [Example 35] (H-[12Ado]WNSSFYRLRFELRYRAERSKEEEEE-OH)
7,28%,EEENPRWLSVTWQDPHSKG-NH2 [Example 55]
8,52%,RKFQNSPAEDFQEPCQYSQES [Example 21]
9,62%,EEEDPHSWNSSFYRLRFELRYRAERSKKG-NH2 [Example 79]
10,40%,CC(C)C[C@H](NC(=O)[C@@H](NC(=O)[C@@H](NC(=O)[C@H](CO)NC(=O)[C@H](CC(=O)O)NC(=O)CNC(=O)[C@@H]1CCCN1C(=O)[C@H](CC(C)C)NC(=O)[C@H](CO)NC(=O)[C@@H](NC(=O)CCCCCCCCCCCN)[C@@H](C)O)C(C)C)[C@@H](C)O)C(=O)N[C@H](C(=O)N[C@@H](CS)C(=O)N1CCC[C@H]1C(=O)NCC(=O)N[C@H](C(=O)N[C@@H](CCC(=O)O)C(=O)N1CCC[C@H]1C(=O)N[C@@H](CCC(=O)O)C(=O)N[C@@H](CC(=O)O)C(=O)N[C@@H](CCC(=O)O)C(=O)N[C@@H](CCC(=O)O)C(=O)N[C@@H](CCC(=O)O)C(=O)N[C@@H](CCC(=O)O)C(=O)N[C@@H](CCC(=O)O)C(=O)O)C(C)C)[C@@H](C)O [Example 3] (H-[12Ado]TSLPGDSVTLTCPGVEPEDEEEEE-OH)
11,34%,CC(C)C[C@H](NC(=O)[C@H](Cc1c[nH]cn1)NC(=O)[C@@H](NC(=O)[C@@H](NC(=O)CNC(=O)CCCCCCCCCCCN)[C@@H](C)O)C(C)C)C(=O)N[C@@H](CC(C)C)C(=O)N[C@H](C(=O)N[C@@H](CC(=O)O)C(=O)N[C@H](C(=O)N1CCC[C@H]1C(=O)N1CCC[C@H]1C(=O)N[C@@H](CCC(=O)O)C(=O)N[C@@H](CCC(=O)O)C(=O)N1CCC[C@H]1C(=O)N[C@@H](CCC(N)=O)C(=O)N[C@@H](CC(C)C)C(=O)N[C@@H](CO)C(=O)N[C@@H](CS)C(=O)N[C@@H](Cc1ccccc1)C(=O)N[C@@H](CCCNC(=N)N)C(=O)N[C@@H](CCCCN)C(=O)N[C@@H](CCC(=O)O)C(=O)N[C@@H](CCC(=O)O)C(=O)N[C@@H](CCC(=O)O)C(=O)N[C@@H](CCC(=O)O)C(=O)N[C@@H](CCC(=O)O)C(=O)O)C(C)C)C(C)C [Example 11] (H-[12Ado]GTVHLLVDVPPEEPQLSCFRKEEEEE-OH)
12,68%,WQDPHSWNSSFYRLRFELRYRAERSKK [Example 89]
13,22%,NPRWLSVTWQDPHS [Example 53]
14,55%,DDDDDRKFQNSPAEDFQEPCQYSQESAAG-NH2 [Example 24]
15,48%,WNSSFYRLRFELRYRAERSK [Example 37]
16,47%,CC[C@H](C)[C@H](NC(=O)[C@H](CC(N)=O)NC(=O)[C@H](CC(=O)O)NC(=O)[C@H](CC(=O)O)NC(=O)[C@H](CC(=O)O)NC(=O)[C@H](CCCCN)NC(=O)[C@H](CC(N)=O)NC(=O)[C@@H](NC(=O)[C@@H](NC(=O)[C@H](CC(C)C)NC(=O)[C@H](C)NC(=O)[C@H](CCC(N)=O)NC(=O)CCCCCCCCCCCCCCCCCN)[C@@H](C)O)[C@@H](C)O)C(=O)N[C@@H](CC(C)C)C(=O)N[C@@H](Cc1ccccc1)C(=O)N[C@@H](CCCNC(=N)N)C(=O)N[C@@H](CC(=O)O)C(=O)N[C@@H](CO)C(=O)N[C@@H](C)C(=O)NCC(=O)O [Example 28] (X1-QALTTNKDDDNILFRDSAG-OH)
17,28%,TSLPGDSVTLTCPGVEPED [Example 5]
18,30%,EEEGTVHLLVDVPPEEPQLSCFRKKG-NH2 [Example 15]
19,62%,C[C@H](NC(=O)[C@@H]1CCCN1C(=O)[C@H](CO)NC(=O)[C@H](CC(N)=O)NC(=O)[C@H](CCC(N)=O)NC(=O)[C@H](Cc1ccccc1)NC(=O)[C@H](CCCCN)NC(=O)[C@H](CCCNC(=N)N)NC(=O)CCCCCCCCCCCN)C(=O)N[C@@H](CCC(=O)O)C(=O)N[C@@H](CC(=O)O)C(=O)N[C@@H](Cc1ccccc1)C(=O)N[C@@H](CCC(N)=O)C(=O)N[C@@H](CCC(=O)O)C(=O)N1CCC[C@H]1C(=O)N[C@@H](CS)C(=O)N[C@@H](CCC(N)=O)C(=O)N[C@@H](Cc1ccc(O)cc1)C(=O)N[C@@H](CO)C(=O)N[C@@H](CCC(N)=O)C(=O)N[C@@H](CCC(=O)O)C(=O)N[C@@H](CO)C(=O)N[C@@H](CCC(=O)O)C(=O)N[C@@H](CCC(=O)O)C(=O)N[C@@H](CCC(=O)O)C(=O)N[C@@H](CCC(=O)O)C(=O)N[C@@H](CCC(=O)O)C(=O)O [Example 19] (H-[12Ado]RKFQNSPAEDFQEPCQYSQESEEEEE-OH)
20,42%,KKQALTTNKDDDNILFRDSA [Example 26]
21,28%,KKGTVHLLVDVPPEEPQLSCFRK [Example 10]
22,57%,DDDDDPHSWNSSFYRLRFELRYRAERSKAAG-NH2 [Example 72]
23,35%,CC(C)C[C@H](NC(=O)[C@H](Cc1c[nH]c2ccccc12)NC(=O)[C@H](CCCNC(=N)N)NC(=O)[C@@H]1CCCN1C(=O)[C@H](CC(N)=O)NC(=O)CCCCCCCCCCCCCCCCCN)C(=O)N[C@@H](CO)C(=O)N[C@H](C(=O)N[C@H](C(=O)N[C@@H](Cc1c[nH]c2ccccc12)C(=O)N[C@@H](CCC(N)=O)C(=O)N[C@@H](CC(=O)O)C(=O)N1CCC[C@H]1C(=O)N[C@@H](Cc1c[nH]cn1)C(=O)N[C@@H](CO)C(=O)NCC(=O)O)[C@@H](C)O)C(C)C [Example 52] (X1-NPRWLSVTWQDPHSG-OH)
